According to patent publication EP3835316A1, “MOLECULES FOR USE TO TREAT OR PREVENT CARDIAC DISEASES” (Universiteit Gent, priority 2019, dated 2021):

Molecular target: T1, Cx43 HC (Mus musculus, UniProt P23242)
T1 construct: left ventricular isolated cardiomyocytes were collected; endogenous in cells; host or cells: left ventricular cardiomyocytes acutely isolated from adult C57BL6 mice
Assay: Whole cell voltage-clamp recording of Cx43 HC unitary currents activated by combined RyR activation (caffeine)/[Ca2+]i elevation in isolated ventricular cardiomyocytes
Format: cell-based
Details: RyR inhibitors; [Ca2+]i clamped to 250 nM (10 mM BAPTA); Vm = -70 mV
Protocol: Adult C57BL6 mice, between 10 - 16 weeks, were heparinized (5000 IU/kg IP) and sacrificed by cervical dislocation. Following thoracotomy, the heart was quickly excised and then transferred to a Langendorff apparatus and perfused at a constant flow (^∼3 mL/min) and temperature (37°C). The heart was digested using collagenase and protease and left ventricular isolated cardiomyocytes were collected. Ca^2+-tolerant cells were used for the experiment for the next 6 hours. In case of Cx43 knockdown (KD) (Cx43^CreER(T)/fl) and respective control mice (Cre43^fl/fl) the isolation procedures were preceded by daily injection of tamoxifen to achieve global knockdown condition^25. Cre43^fl/fl mice are available from The Jackson Laboratory and the Cx43^CreER(T)/fl transgenic mouse strain can be made by any method known in the art.
Isolated ventricular cardiomyocytes and HeLa-Cx43 cells were studied under whole cell voltage-clamp to record membrane currents. Patch clamp experiments were conducted at room temperature (22 ± 1 °C). Fluo-4 (25 µM) was used to detect the [Ca^2+]i transients during the current recording.
Caffeine triggers two combined events, RyR activation and subsequent [Ca^2+]i elevation, and we next aimed to separate both processes. […] For simplicity, we further refer to the calculated concentrations in the following text. […]

T1 sequence (P23242 whole entry): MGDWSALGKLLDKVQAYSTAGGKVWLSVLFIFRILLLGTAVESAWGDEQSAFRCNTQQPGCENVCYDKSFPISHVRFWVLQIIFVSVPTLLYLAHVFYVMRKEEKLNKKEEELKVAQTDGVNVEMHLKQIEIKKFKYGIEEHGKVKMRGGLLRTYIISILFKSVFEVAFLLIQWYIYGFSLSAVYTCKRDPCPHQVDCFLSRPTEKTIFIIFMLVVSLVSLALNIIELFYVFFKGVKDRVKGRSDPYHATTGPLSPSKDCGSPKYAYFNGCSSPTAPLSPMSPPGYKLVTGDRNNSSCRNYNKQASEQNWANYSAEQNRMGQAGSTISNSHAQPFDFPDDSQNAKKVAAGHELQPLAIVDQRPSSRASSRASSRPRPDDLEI

Row | Compound | caffeine-induced Cx43 HC activation
1 | O=C1CN(/N=C/c2ccc(-c3ccc([N+](=O)[O-])cc3)o2)C(O)=N1 [dantrolene] | did not inhibit
2 | ryanodine | did not inhibit
